Experiments:
[1] = system: human red blood cells (RBC); test: Hemolysis assay; details: low concentrations, 37° C., 20 hours
Protocol: Briefly, each sample was serially diluted with phosphate buffered saline (PBS), and 0.5 ml of each dilute suspension was mixed with 0.5 ml washed human red blood cells (RBC) [4% in PBS (v/v)]. Sample and standard were placed in a 37° C. incubator and agitated for 20 hours. Tubes were centrifuged at low speed (2000×G) for 10 minutes and 200 μl of the supernatant was quantitated by absorbance at 550 nm. 100 percent hemolysis was defined as the maximum amount of hemolysis obtained from the detergent Triton X-100.
The lipids were hydrated in phosphate buffered saline (PBS). 1-O-octadecyl-2-O-methyl-sn-glycero-3-phosphocholine (ET-18-OCH3) in PBS was included in the assay as a reference.
Briefly, each sample was serially diluted with PBS, and 0.5 ml of each dilute suspension of 1-O-DPPC liposomes were mixed with 0.5 ml washed human red blood cells (RBC) [4% in PBS (v/v)]. For controls, 0.5 ml of the red blood cell suspension was mixed with either 0.5 ml buffer solution (negative hemolysis control) or 0.5 ml water (positive hemolysis control). Samples and standard were placed in a 37° C. incubator and agitated for 20 hours. Tubes were centrifuged at low speed (2000×G) for 10 minutes to form RBCs pellets. 200 μl of the supernatant was quantified by absorbance at 550 nm using a Perkin-Elmer 320 scanning spectrophotometer. […]

[2] = molecular target: T1, Snake venom PLA2 (Agkistrodon piscivorus piscivorus) (Agkistrodon piscivorus piscivorus, UniProt P51972); test: Model system: PLA2-controlled calcein release across D-O-SPC target membrane with DPPC carrier liposomes; format: biochemical
T1 construct: Purified snake venom PLA2 (Agkistrodon piscivorus piscivorus) was a generous gift from dr; R. L. Biltonen; tissue gift from dr; host or cells: snake venom of Agkistrodon piscivorus piscivorus
T1 sequence (P51972 1-123): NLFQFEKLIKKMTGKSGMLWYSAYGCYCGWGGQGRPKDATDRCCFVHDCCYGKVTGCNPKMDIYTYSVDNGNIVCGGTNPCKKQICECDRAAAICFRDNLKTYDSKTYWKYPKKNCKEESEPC
Protocol: The temperature is 37° C. […] The percentage of calcein released is determined as % Release=100 (IF(t)−IB)/(IT−IB), where IF(t) is the measured fluorescence at time t after addition of the enzyme, IB is the background fluorescence, and IT is the total fluorescence measured after addition of Triton X-100 which leads to complete release of calcein by breaking up the target liposomes. […] The concentration of the target and carrier liposomes are 25 μM, and PLA2 is added in a 25 nM concentration in a HEPES buffer with pH=7.5.
The experimental model system consists of a negatively charged liposome carrier and a model target membrane. The carrier is a 100 nm unilamellar liposome made of dipalmitoyl phosphatidylcholine lipids (DPPC) with a small amount (2.5 mol %) of negatively charged lipid of the type dipaimitoyl phosphatidylethanolamine (DPPE)-PEG2000. The target membrane is another liposome made of 1,2-O-dioctadecyl-sn-glycero-phosphatidylcholine (D-O-SPC) which is a phospholipid where the acyl linkages of the stearoyl chains are ether bonds. In contrast to DPPC, D-O-SPC is inert towards PLA2-catalysed hydrolysis thereby mimicking the stability of an intact target cell membrane toward degradation by its own enzymes. […] The permeation of calcein across the D-O-SPC target membrane is subsequently monitored by the increase in fluorescence. […]

[3] = Calcein release across target membrane on adding lyso-phospholipid and fatty acid in the absence of PLA2; details: 25 μM target membranes, pH=7.5, 39° C.
Protocol: FIG. 13. […] The concentration of the target membranes is 25 μM in a HEPES buffer with pH=7.5 at a temperature of 39° C.
The experimental model system consists of a negatively charged liposome carrier and a model target membrane. The carrier is a 100 nm unilamellar liposome made of dipalmitoyl phosphatidylcholine lipids (DPPC) with a small amount (2.5 mol %) of negatively charged lipid of the type dipaimitoyl phosphatidylethanolamine (DPPE)-PEG2000. The target membrane is another liposome made of 1,2-O-dioctadecyl-sn-glycero-phosphatidylcholine (D-O-SPC) which is a phospholipid where the acyl linkages of the stearoyl chains are ether bonds. In contrast to DPPC, D-O-SPC is inert towards PLA2-catalysed hydrolysis thereby mimicking the stability of an intact target cell membrane toward degradation by its own enzymes. This experimental assay, which permits simultaneous as well as separate investigation of the effect of destabilisers at the carrier liposomes and the effect of enhancers at the target membrane, involves entrapment of a water-soluble fluorescent calcein model drug in a self-quenching concentration, in the interior of the non-hydrolysable target liposome, rather than in the carrier liposome. […] The permeation of calcein across the D-O-SPC target membrane is subsequently monitored by the increase in fluorescence. […]

[4] = molecular target: T2, phospholipase A2 (A. piscivorus piscivorus) (Agkistrodon piscivorus piscivorus, UniProt P51972)
T2 sequence (P51972 1-123): T1 sequence (P51972 1-123)
Protocol: HPLC chromatograms illustrating the effect of phospholipase A2 hydrolysis of micelles composed DSPE-PEG750 (0.150 mM). The chromatograms show the amount of stearic acid generated before (solid line) phospholipase A2 (A. piscivorus piscivorus) was added to the micelle suspension and the amount (dashed line) of DSPE-PEG750 after the lag-burst. The dotted line show pure stearic acid (0.4 mM). The percentage hydrolysis was calculated on basis of the integrated area of the stearic acid standard (115850 units) and the integrated area of the sample (45630 units).
The hydrolysis of micelles composed DSPE-PEG750 was followed by analysis of the amount of stearic acid generated. The catalytic reaction was initiated by adding 8.9 μL of a 42 μM PLA2 (150 nM) stock solution to 2.5 ml a thermostated lipid suspension of DSPE-PEG750 (0.150 mM) equilibrated at 45° C. for 600 seconds prior to addition of PLA2. The characteristic burst behavior of PLA2 towards the micelles is signaled by a sudden increase in the intrinsic fluorescence from PLA2 at 340 nm after excitation at 285 nm followed by a concomitant decrease in the 90° light scattering from the lipid suspension (Hønger et al., Biochemistry 35, 9003–9006). Samples for HPLC analysis of the amount of stearic acid generated were taken before adding PLA2 and 100 sec after the observed lag-time.

## CCCCCCCCCCCCCCCCCCOC[C@H](COP(=O)([O-])OCC[N+](C)(C)C)OC [ET-18-OCH3]
[1]
  hemolysis (in words): significant degree of hemolysis

## CC(C)CCC[C@@H](C)[C@H]1CC[C@H]2[C@@H]3CC=C4C[C@@H](O)CC[C@]4(C)[C@H]3CC[C@]12C [cholesterol]
[2]; ≈3 mol % incorporated into liposomes
  effect on extracellular PLA2 activity (in words): activates
[2]; ≈20 mol % incorporated into liposomes, data not shown
  effect on extracellular PLA2 activity (in words): deactivated

## CCCCCCCCCCCCCCCC(=O)O [fatty acid, palmitic acid]
[3]
  rate of calcein release across target membrane (in words): increased rate of calcein release

## di-octadecanoyl-sn-glycero-3-phosphoethanolamine-N-[methoxy(polyethylene glycol)-750 [DSPE-PEG750]
[4]; 0.150 mM DSPE-PEG750, 150 nM PLA2, 45° C.
  percent hydrolysis of DSPE-PEG750: 100%
[4]; 45° C., 150 nM PLA2
  lag time: 10 s

From patent US7166297B2, “Lipid-based drug delivery systems against parasitic infections” (LiPlasome Pharma A/S, priority 2000, dated 2007)
